From patent US4182895A, “1-Amino-lower-alkyl-3,4-diphenyl-1H-pyrazoles” (Sterling Drug Inc., priority 1978, dated 1980)

Key:
[1] = Rosenthal, 1953; cited from earlier work
[2] = Buchi et al., 1955; cited from earlier work
tetrabenazine = assay: Anti-tetrabenazine (TB) test, anti-depressant activity: photocell activity counts after tetrabenazine; assay type: in vivo, Male Swiss-Webster mice; settings: 4 h before tetrabenazine 50 mg./kg. i.p.
Method: The test procedure used to determine the anti-depressant activity of the compounds of the invention is described as follows: Male Swiss-Webster mice (Taconic Farms) weighing from 19-24 g. were divided into four groups of nine to ten mice per group. […] The fourth group received the vehicle only. Four hours following medication, all the control and the test animals were medicated with 50 mg./kg. (i.p.) of tetrabenazine and were placed in a photocell activity cage [described by Harris et al., Psychon. Sci., 4, 267 (1966)] equipped with a digital counter to record the number of times that a light beam impinging on a photocell is interrupted during the test period. Beginning thirty minutes after tetrabenazine medication, the photocell units were activated and the photocell counts recorded over a fifty minute period.

[3] = system: acetylcholine-induced abdominal constriction; assay: Acetylcholine-induced abdominal constriction test (Ach), analgesic activity; assay type: in vivo, mice; settings: for ED50: Mus musculus
Description: (§1) The test procedures used to determine the analgesic activities of the compounds of the invention have been described in detail in the prior art and are as follows: The acetylcholine-induced abdominal constriction test, which is a primary analgesic screening test to measure the ability of a test agent to suppress acetylcholine-induced abdominal constriction in mice described by Collier et al., Brit. J. Pharmacol. Chemotherap. 32, 295 (1968) and the phenyl p-quinone-induced writhing test, also a primary analgesic screening test, designed to measure the ability of a test agent to prevent phenyl p-quinone-induced writhing in mice, described by Pearl and Harris, J. Pharmacol. Exptl. Therap. 154, 319-323 (1966).

[4] = system: phenyl p-quinone-induced writhing; assay: Phenyl p-quinone-induced writhing test (PPQ), analgesic activity; assay type: in vivo, mice; settings: Mus musculus, po
Description: as §1

[5] = Tested at 4, 16 and 64 mg./kg. (p.o.), activity = significant difference, 0.05 level or less

For NCCn1nc(-c2ccccc2)cc1-c1ccccc1 [1-(2-aminoethyl)-3,5-diphenyl-1H-pyrazole], the local anesthetic activity [1] is listed as “having local anesthetic activity”.
In the case of Cc1cn(CCN(C)C)nc1-c1ccccc1 [1-(2-dimethylaminoethyl)-3-phenyl-4-methyl-1H-pyrazole], the analgesic activity [2] is listed as “analgesic activity is asserted”.
With Cl.Cl.NCCCn1cc(-c2ccccc2)c(-c2ccccc2)n1 [Example 1A, 1-(3-aminopropyl)-3,4-diphenyl-1H-pyrazole dihydrochloride] the “TB (anti-tetrabenazine activity)” value (tetrabenazine; [5]) was “Inac” and the ED50 ([3]; sc) was 11 mg/kg.
With CNCCCn1cc(-c2ccccc2)c(-c2ccccc2)n1.Cl [Example 1B, 1-[3-(N-methylamino)propyl]-3,4-diphenyl-1H-pyrazole hydrochloride] the “TB (anti-tetrabenazine activity)” value (tetrabenazine; at 4 mg./kg.) was “Inac” and the “TB (anti-tetrabenazine activity)” value (tetrabenazine; at 16 and 64 mg./kg.) was “Act”.
With CN(C)CCCn1cc(-c2ccccc2)c(-c2ccccc2)n1.Cl.Cl [Example 2, 1-[3-(N,N-dimethylamino)propyl]-3,4-diphenyl-1H-pyrazole dihydrochloride] the “TB (anti-tetrabenazine activity)” value (tetrabenazine; at 2 mg./kg.) was “Inac” and the “TB (anti-tetrabenazine activity)” value (tetrabenazine; at 4, 8 and 16 mg./kg.) was “Act”.
For CCN(CC)CCn1cc(-c2ccccc2)c(-c2ccccc2)n1.Cl [Example 3, 1-[2-(N,N-diethylamino)ethyl]-3,4-diphenyl-1H-pyrazole hydrochloride], the “TB (anti-tetrabenazine activity)” value (tetrabenazine; [5]) was “Inac”, the Ach % effect ([3]; 10 mg./kg. s.c.) was 53% and the Ach % effect ([3]; 50 mg./kg. s.c.) was 67%. It also gave an Ach % effect ([3]; 100 mg./kg. s.c.) of 60%, an ED50 ([3]; po) of 29 mg/kg and an ED50 [4] of 90 mg/kg.
With CCN(CC)CCCn1cc(-c2ccccc2)c(-c2ccccc2)n1.Cl [Example 4, 1-[3-(N,N-diethylamino)propyl]-3,4-diphenyl-1H-pyrazole hydrochloride] the “TB (anti-tetrabenazine activity)” value (tetrabenazine; [5]) was “Inac” and the ED50 ([3]; sc) was 2.2 mg/kg.
